In patent publication US20090081197A1 (Palatin Technologies, Inc., priority 2007, published 2009):
Where two headings read alike, the source gives them in different places.

Tests used:
[1] = Penile erection induction in male rats; assay type: in vivo; details: rat
Summary of the method: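 Male Sprague-Dawley rats (200-250 g), groups of 4-8, dosed IV or ICV at various doses and observed individually for penile erections. Only statistically relevant increases over vehicle-control mean PEs count as induction; IV responses below 1.0 PEs/rat treated as equivocal, some retested ICV.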

MC3-R [2] = target: T1, MC3-R (Homo sapiens, UniProt P41968); assay: Competitive inhibition assay using [I^125]-NDP-α-MSH, hMC3-R membranes; assay type: binding; parameters: expressed in transfected cells; details: for inhibition at 1 µM: 1 μM test compound, read-out: Inhibition at 1 μM (NDP-α-MSH) In Normal System, MC3-R
T1 sequence (P41968 whole entry): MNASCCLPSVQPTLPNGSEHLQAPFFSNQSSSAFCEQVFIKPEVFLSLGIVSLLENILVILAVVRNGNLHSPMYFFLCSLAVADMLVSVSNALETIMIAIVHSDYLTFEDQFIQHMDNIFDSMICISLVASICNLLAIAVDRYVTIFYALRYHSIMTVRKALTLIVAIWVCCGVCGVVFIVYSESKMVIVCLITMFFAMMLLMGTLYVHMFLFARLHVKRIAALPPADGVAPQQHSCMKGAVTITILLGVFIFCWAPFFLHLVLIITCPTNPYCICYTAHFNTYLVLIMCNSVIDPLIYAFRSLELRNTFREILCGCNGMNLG
Summary of the method: (§1)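 Tracer was 0.4 nM for MC3-R and MC5-R, 0.2 nM for MC4-R and 0.1 nM for MC1-R. Bound radioactivity was gamma-counted after filtration; values are triplicate means, with results below 0% reported as 0%.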

MC4-R [3] = target: T2, MC4-R (Homo sapiens, UniProt P32245); assay: cAMP agonist stimulation, low receptor density system (0.1 ng/mL doxycycline); details: 0.1 ng/mL doxycycline, low receptor density hMC4-R system; NDP-α-MSH maximal cAMP = 1.0
T2 sequence (P32245 whole entry): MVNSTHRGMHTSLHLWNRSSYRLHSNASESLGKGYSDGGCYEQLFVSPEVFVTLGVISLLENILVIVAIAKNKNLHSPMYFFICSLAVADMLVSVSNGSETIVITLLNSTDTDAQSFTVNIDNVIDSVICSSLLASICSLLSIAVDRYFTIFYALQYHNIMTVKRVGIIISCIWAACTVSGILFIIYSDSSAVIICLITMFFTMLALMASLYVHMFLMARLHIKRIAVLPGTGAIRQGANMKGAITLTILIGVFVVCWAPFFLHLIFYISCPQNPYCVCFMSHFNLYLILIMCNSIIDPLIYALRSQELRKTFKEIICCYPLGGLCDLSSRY

MC5-R [4] = target: T3, MC5-R (Homo sapiens, UniProt P33032); assay: Competitive inhibition assay using [I^125]-NDP-α-MSH, hMC5-R membranes; assay type: binding; parameters: expressed in transfected cells; details: for inhibition at 1 µM: 1 μM test compound, read-out: Inhibition at 1 μM (NDP-α-MSH) In Normal System, MC5-R
T3 sequence (P33032 whole entry): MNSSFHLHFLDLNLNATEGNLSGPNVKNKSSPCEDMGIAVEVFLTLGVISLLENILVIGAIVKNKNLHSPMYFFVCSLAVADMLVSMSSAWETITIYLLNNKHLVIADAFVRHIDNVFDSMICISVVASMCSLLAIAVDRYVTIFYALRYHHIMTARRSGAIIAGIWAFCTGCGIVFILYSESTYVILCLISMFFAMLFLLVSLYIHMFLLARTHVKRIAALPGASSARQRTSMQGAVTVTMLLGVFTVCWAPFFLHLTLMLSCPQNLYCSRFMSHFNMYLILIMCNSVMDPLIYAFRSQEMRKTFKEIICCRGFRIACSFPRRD
Summary of the method: as §1

MC5-R [5] = target: T3, MC5-R; assay: cAMP functional activity assay in HEK-293 cells; assay type: cell-based; parameters: expressed in transfected cells; host or cells: HEK-293; details: 1 μM concentration where stated
Protocol: (§2) General method for EC50 determination in functional activity assay. […] Data analysis and EC50 values were determined using nonlinear regression analysis with Prism Graph-Pad software.
(§3) Functional status. The agonist/antagonist status with respect to MC1-R, MC-3R, MC4-R and MC5-R of certain compounds of the invention was determined. Antagonistic activity was determined by measuring the inhibition of α-MSH-induced or NDP-α-MSH-induced cAMP levels following exposure to graded doses of compounds as in the preceding descriptions.

MC3-R [6] = target: T1, MC3-R; assay: cAMP functional activity assay in HEK-293 cells; assay type: cell-based; parameters: expressed in transfected cells; host or cells: HEK-293; details: 1 μM concentration where stated
Protocol: as §2, §3

MC1-R [7] = target: T4, MC1-R (Mus musculus, UniProt Q01727); assay: cAMP functional activity assay in B-16 mouse melanoma cells; assay type: cell-based; details: 1 μM concentration where stated
T4 construct: B-16 mouse melanoma cells (containing MC1-R); endogenous in cells
T4 sequence (Q01727 whole entry): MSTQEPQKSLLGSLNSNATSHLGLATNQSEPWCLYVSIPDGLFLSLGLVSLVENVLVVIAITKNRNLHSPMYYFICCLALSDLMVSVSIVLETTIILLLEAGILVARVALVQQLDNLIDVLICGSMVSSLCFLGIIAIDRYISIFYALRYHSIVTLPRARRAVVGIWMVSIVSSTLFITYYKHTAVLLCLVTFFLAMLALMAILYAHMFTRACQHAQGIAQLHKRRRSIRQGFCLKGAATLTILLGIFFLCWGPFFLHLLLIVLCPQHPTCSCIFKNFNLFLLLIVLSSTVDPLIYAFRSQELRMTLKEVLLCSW
Protocol: as §2, §3

MC4-R [8] = target: T2, MC4-R; assay: Competitive inhibition assay using [I^125]-NDP-α-MSH, hMC4-R membranes; assay type: binding; parameters: host or cells: TREx-293 (HEK-293 stably expressing Tet repressor); details: for inhibition at 1 µM: 1 μM test compound, read-out: Inhibition at 1 μM (NDP-α-MSH) In Normal System, MC4-R
Summary of the method: as §1

MC1-R [9] = target: T4, MC1-R; assay: Competitive inhibition assay using [I^125]-NDP-α-MSH, B-16 mouse melanoma cell membranes; assay type: binding; details: for inhibition at 1 µM: 1 μM test compound, read-out: Inhibition at 1 μM (NDP-α-MSH) In Normal System, MC1-R; for Ki: read-out: Ki (nM) (NDP-α-MSH) In Normal System, MC1-R
Summary of the method: as §1

MC4-R [10] = target: T2, MC4-R; assay: cAMP agonist stimulation, high receptor density system (10 ng/mL doxycycline); details: for Efficacy/Intrinsic Activity: NDP-α-MSH maximal cAMP = 1.0
MC4-R [11] = target: T2, MC4-R; assay: cAMP functional activity assay in HEK-293 cells, normal system; assay type: cell-based; parameters: expressed in transfected cells; host or cells: HEK-293; details: for intrinsic activity at MC4-R in a normal system: normal receptor density system, NDP-α-MSH = 1.0; for functional status at MC4-R in cAMP assay: normal system, 1 μM concentration where stated
[12] = 10 ng/mL doxycycline, high receptor density hMC4-R system

Compound	Penile Erection IV ([1]; IV)	penile erection response ([1]; IV, 0.3 to 30 μg/kg)	inhibition at 1 µM (MC3-R [2]) [%]	Efficacy/Intrinsic Activity (MC4-R [3])	inhibition at 1 µM (MC5-R [4]) [%]	functional status at MC5-R in cAMP assay (MC5-R [5])	functional status at MC3-R in cAMP assay (MC3-R [6])	functional status at MC1-R in cAMP assay (MC1-R [7])	inhibition at 1 µM (MC4-R [8]) [%]	inhibition at 1 µM (MC1-R [9]) [%]	Ki (MC1-R [9]) [nM]	EC50 (MC4-R [10]) [nM]	Efficacy/Intrinsic Activity (MC4-R [10]; [12])	intrinsic activity at MC4-R in a normal system (MC4-R [11])	functional status at MC4-R in cAMP assay (MC4-R [11])	Penile Erection ICV ([1]; ICV)	further results
C[C@@H]1CN(C(=O)[C@H](N)Cc2ccc3ccccc3c2)[C@@H](CCCNC(=N)N)CN1C(=O)Cc1c[nH]c2ccccc12 [Example 6, N-{3-[1-(2(R)-Amino-3-naphthalen-2-yl-propionyl)-4-(2-1H-indol-3-yl-acetyl)-5(R)-methyl-piperazin-2(S)-yl]-propyl}-guanidine]	No	no penile erection response	35	None	6	partial agonist (intrinsic activity between 0.1 (10%) and 0.7 (70%) is classified as a partial agonist)	no intrinsic activity (intrinsic activity below 0.1 (10%) is classified as inactive or having no intrinsic activity)	no intrinsic activity (intrinsic activity below 0.1 (10%) is classified as inactive or having no intrinsic activity)	90	20	315	39	0.43	0.2	partial agonist (intrinsic activity between 0.1 (10%) and 0.7 (70%) is classified as a partial agonist)		
Cc1ccc(CCN2C[C@H](CCCNC(=N)N)N(C(=O)[C@H](N)Cc3ccc4ccccc4c3)C[C@H]2C)cc1 [Example 5, N-{3-[1-(2(R)-Amino-3-naphthalen-2-yl-propionyl)-5(R)-methyl-4-(2-p-tolyl-ethyl)-piperazin-2(S)-yl]-propyl}-guanidine]	No	no penile erection response	61	None	65	partial agonist (intrinsic activity between 0.1 (10%) and 0.7 (70%) is classified as a partial agonist)	no intrinsic activity (intrinsic activity below 0.1 (10%) is classified as inactive or having no intrinsic activity)	partial agonist (intrinsic activity between 0.1 (10%) and 0.7 (70%) is classified as a partial agonist)	95	32	135	117	0.46	0.6	partial agonist (intrinsic activity between 0.1 (10%) and 0.7 (70%) is classified as a partial agonist)		
N-{3-[1-[2(R)-Amino-3-(4-chloro-2-fluoro-phenyl)-propionyl]-5(S)-methyl-4-(2-naphthalen-2-yl-ethyl)-piperazin-2(S)-yl]-propyl}-guanidine [Example 3]				None		no intrinsic activity (intrinsic activity below 0.1 (10%) is classified as inactive or having no intrinsic activity)		partial agonist (intrinsic activity between 0.1 (10%) and 0.7 (70%) is classified as a partial agonist)			109		0.26		no intrinsic activity (intrinsic activity below 0.1 (10%) is classified as inactive or having no intrinsic activity)		Ki (MC3-R [2]; read-out: Ki (nM) (NDP-α-MSH) In Normal System, MC3-R): 186 nM; Ki (MC5-R [4]; read-out: Ki (nM) (NDP-α-MSH) In Normal System, MC5-R): 204 nM; Ki (MC4-R [8]; read-out: Ki (nM) (NDP-α-MSH) In Normal System, MC4-R): 6 nM; EC50 (MC4-R [10]; [12]): 61 nM
Cc1[nH]c2ccccc2c1CCN1C[C@H](CCCNC(=N)N)N(C(=O)[C@H](N)Cc2ccc3ccccc3c2)C[C@H]1C [Example 8, N-(3-{1-(2(R)-Amino-3-naphthalen-2-yl-propionyl)-5(R)-methyl-4-[2-(2-methyl-1H-indol-3-yl)-ethyl]-piperazin-2(S)-yl}-propyl)-guanidine]			57	None	76	agonist (intrinsic activity of 0.7 (70%) or higher is classified as an agonist)	no intrinsic activity (intrinsic activity below 0.1 (10%) is classified as inactive or having no intrinsic activity)	partial agonist (intrinsic activity between 0.1 (10%) and 0.7 (70%) is classified as a partial agonist)	95	73	148		None	0.9	agonist (intrinsic activity of 0.7 (70%) or higher is classified as an agonist)	No	penile erection response ([1]; ICV, 0.01 to 10 nM): no penile erection response
N=C(N)NCCC[C@H]1C(=O)N(CCc2c[nH]c3ccccc23)CCN1C(=O)[C@H](N)Cc1ccc(Cl)cc1Cl [Example 2, N-(3-{(S)-1-[(R)-2-Amino-3-(2,4-dichloro-phenyl)-propionyl]-4-[2-(1H-indol-3-yl)-ethyl]-3-oxo-piperazin-2-yl}-propyl)-guanidine]	No		57	None	35	partial agonist (intrinsic activity between 0.1 (10%) and 0.7 (70%) is classified as a partial agonist)		partial agonist (intrinsic activity between 0.1 (10%) and 0.7 (70%) is classified as a partial agonist)	96	7	1410	57	0.56	0.3	partial agonist (intrinsic activity between 0.1 (10%) and 0.7 (70%) is classified as a partial agonist)		penile erection response ([1]; IV, 0.3 to 3 μg/kg): did not cause penile erection behavior
C[C@@H]1CN(C(=O)[C@H](N)Cc2ccc3ccccc3c2)[C@@H](CCCNC(=N)N)CN1C(=O)CCCc1c[nH]c2ccccc12 [Example 7]			32	None	62	no intrinsic activity (intrinsic activity below 0.1 (10%) is classified as inactive or having no intrinsic activity)	no intrinsic activity (intrinsic activity below 0.1 (10%) is classified as inactive or having no intrinsic activity)	no intrinsic activity (intrinsic activity below 0.1 (10%) is classified as inactive or having no intrinsic activity)	88	0	1200	72	0.38	0.4	partial agonist (intrinsic activity between 0.1 (10%) and 0.7 (70%) is classified as a partial agonist)	No	penile erection response ([1]; ICV, 0.01 to 10 nmol): no penile erection response
